According to patent US20230331803A1, “CO-AGONISTS OF THE GLP-1 AND AMYLIN RECEPTORS” (priority 2020, published 2023):
pEC50: −log10 of the molar value. Where two headings read alike, the source gives them in different places. Starred links: 1 amine or outer side, 2 acyl side, 3 side chain; linkers in the order of their positions; H or OH if unused. Non-standard residues stand in square brackets, D forms with d. Groups on a side chain read outwards from the residue. *: point of attachment. Decanoyl(10-(4-HOOC-PhO)) = O=C(O)c1ccc(OCCCCCCCCCC(=O)*)cc1; C16 diacid = O=C(O)CCCCCCCCCCCCCCC(=O)*; γGlu = O=C(O)[C@H](CCC(=O)[*:2])N[*:1]; AEEA = NCCOCCOCC(=O)O; Aib = CC(C)(N)C(=O)O; Ahx = NCCCCCC(=O)O

What was measured:
human GLP-1 receptor = target: T1, human GLP-1 receptor (Homo sapiens, UniProt P43220); experiment: Human GLP-1 receptor in vitro potency assay (CRE-luciferase reporter, BHK cells); format: cell-based; conditions: for EC50: Table 4a, BHK cells expressing human GLP-1R, CRE-Luc, 3 hours, read-out: Human GLP-1R potency [EC50 (pM)]
T1 construct: expressed in transfected cells; host or cells: BHK (Baby Hamster Kidney) cells, clone BHK 467-12A KZ-10, stably transfected, with CRE-luciferase reporter
T1 sequence (P43220 24-463): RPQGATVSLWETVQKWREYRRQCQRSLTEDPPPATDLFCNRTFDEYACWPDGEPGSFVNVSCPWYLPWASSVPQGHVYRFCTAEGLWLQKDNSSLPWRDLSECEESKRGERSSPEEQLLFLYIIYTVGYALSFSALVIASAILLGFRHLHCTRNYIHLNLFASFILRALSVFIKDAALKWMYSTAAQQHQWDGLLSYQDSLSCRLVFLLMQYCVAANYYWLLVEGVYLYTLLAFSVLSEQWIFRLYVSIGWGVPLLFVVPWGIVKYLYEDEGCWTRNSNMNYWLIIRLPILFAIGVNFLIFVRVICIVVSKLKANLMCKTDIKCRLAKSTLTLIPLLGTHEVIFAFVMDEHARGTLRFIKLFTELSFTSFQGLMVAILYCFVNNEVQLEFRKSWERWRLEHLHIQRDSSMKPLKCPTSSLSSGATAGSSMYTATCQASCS
Procedure: It is thus possible to measure GLP-1 receptor activity using a CRE-luciferase reporter gene introduced into Baby Hamster Kidney (BHK) cells co-expressing the GLP-1 receptor.
Cells were aliquoted and stored at -180° C. until use.
Plates were sealed and incubated at room temperature with gentle shaking for 30 minutes while protected from light. Luminescence was detected on a luminescence plate reader e.g. a Synergy 2 (BioTek).

[1] = target: T2, human amylin receptor (hAmyR3) (Homo sapiens, UniProt O60896+P30988); experiment: Human amylin receptor in vitro potency assay (CRE-luciferase reporter, BHK cells); format: cell-based; conditions: for EC50: Table 4a, BHK hAmyR3/CRE-Luc cells, 3 hours, read-out: Human AmyR3 potency [EC50 (pM)];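 on all read-outs here: BHK cells expressing human calcitonin receptor plus RAMP3 (amylin-3 receptor) with a CRE-luciferase reporter, agonist activity read as luminescence from cAMP-driven transcription, 7-point serial dilutions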
T2 construct: host or cells: BHK cells (Hollex-1 line: human calcitonin receptor (a) + CRE-Luc), further transfected with human RAMP3
T2 sequence (P30988 25-474): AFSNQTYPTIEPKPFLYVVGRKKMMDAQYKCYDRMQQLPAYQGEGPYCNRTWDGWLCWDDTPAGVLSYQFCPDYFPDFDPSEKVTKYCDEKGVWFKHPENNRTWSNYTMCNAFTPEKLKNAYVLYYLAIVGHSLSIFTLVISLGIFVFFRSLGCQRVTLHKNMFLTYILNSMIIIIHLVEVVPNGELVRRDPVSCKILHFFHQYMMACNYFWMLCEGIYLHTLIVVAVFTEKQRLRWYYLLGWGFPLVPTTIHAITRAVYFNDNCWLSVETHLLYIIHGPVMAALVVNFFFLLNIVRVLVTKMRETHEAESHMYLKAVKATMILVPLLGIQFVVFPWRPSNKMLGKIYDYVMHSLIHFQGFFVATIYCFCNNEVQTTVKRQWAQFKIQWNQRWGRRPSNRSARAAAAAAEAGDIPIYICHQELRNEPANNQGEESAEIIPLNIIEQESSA
T2 sequence (O60896 24-148): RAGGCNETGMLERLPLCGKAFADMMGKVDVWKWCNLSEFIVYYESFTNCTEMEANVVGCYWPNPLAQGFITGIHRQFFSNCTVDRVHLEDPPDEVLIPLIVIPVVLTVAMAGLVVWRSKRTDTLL

[2] = Pharmacokinetic studies in Beagle dogs after oral administration of SNAC-based tablets; format: in vivo; conditions: for Tmax / half-life: male, Beagle
Procedure: To be able to evaluate oral exposure following tablet dosing, tablet compositions comprising the test substance and SNAC (sodium N-(8-(2-hydroxybenzoyl)amino)caprylate) were prepared by mixing test substance with roller compacted SNAC and magnesium stearate as, e.g., described in WO 2019/149880. The amount of SNAC in the tablet composition was 100-300 mg, the amount of magnesium stearate in the tablet composition was 7.7 mg, and the target amount of each test substance in the tablet composition was 3-4 mg.
Pharmacokinetic (PK) studies in Beagle dogs were conducted to determine the exposure of the GLP-1 receptor-amylin receptor co-agonist after peroral administration.
For the pharmacokinetic studies male Beagle dogs were used, 2-7, or 1 to 5, years of age and weighing approximately 10-15, such as 10-12, kg at the start of the studies. The dogs were group housed in pens (12 hours light: 12 hours dark),and fed individually and restrictedly once daily with Royal Canin Medium Adult dog (Royal Canin Products, China Branch, or Brogaarden A/S, Denmark). Exercise and group social were permitted daily, whenever possible. The dogs were used for repeated pharmacokinetic studies with a suitable wash-out period between successive dosing. An appropriate acclimatisation period was given prior to initiation of the first pharmacokinetic study. All handling, dosing and blood sampling of the animals were performed by trained and skilled staff. Before the studies the dogs were fasted overnight and from 0 to 4 h after dosing. Besides, the dogs were restricted to water 1 hour before dosing until 4 hours after dosing, but otherwise have ad libitum access to water during the whole period.
The tablets used for the p.o. studies described herein were immediate release SNAC-based tablets dosed orally.
The tablets were administered in the following manner: 10 min prior to tablet administration the dogs may be dosed subcutaneously with approximately 3 nmol/kg of SEQ ID NO: 237, tablets were placed in the back of the mouth of the dog to prevent chewing. The mouth was then closed, and 10 mL of tap water was given by a syringe or gavage to facilitate swallowing of the tablet.
Blood was sampled at predefined time points for up till 240 hours, such as up till 10 hr, post dosing to adequately cover the full plasma concentration-time absorption profile of the GLP-1 agonist.
For each blood sampling time point approximately 0.8 mL of whole blood was collected in a 1.5 mL EDTA coated tube, and the tube was gently turned to allowing mixing of the sample with the EDTA. Blood samples (for example 0.8 mL) were collected in EDTA buffer (8 mM) and then centrifuged at 4° C. and 2000 G for 10 minutes. Plasma was pipetted into Micronic tubes on dry ice, and kept at -20° C. until analysis.
Blood samples were taken as appropriate, for example from a venflon in the cephalic vein in the front leg for the first 2 hours and then with syringe from the jugular vein for the rest of the time points (the first few drops were allowed to drain from the venflon to avoid heparin saline from the venflon in the sample).
Plasma concentration of the GLP-1 receptor-amylin receptor co-agonists were determined using LCMS. Individual plasma concentration-time profiles were analysed by a non-compartmental model in WinNonlin v. 5.0 or Phoenix v. 6.2 or 6.3 (Pharsight Inc., Mountain View, CA, USA), or other relevant software for PK analysis.
The individual plasma concentration-time profiles were analysed by non-compartmental analysis (NCA).

[3] = dogs, oral administration (tablet)
[4] = dog, in vivo, dogs, oral administration (tablet), read-out: Tmax
[5] = dog, in vivo, dogs, oral administration (tablet), read-out: T½ (converted)

Compound	pEC50 (human GLP-1 receptor)	pEC50 [1]	AUC/D [2, 3]	Cmax/D [2, 3]	Tmax [2, 4]	half-life [2, 5]	EC50 (human GLP-1 receptor)	EC50 [1]	AUC/D ([2]; dog, in vivo, po)	Cmax/D ([2]; dog, in vivo, po)	Tmax ([2]; dog, in vivo, po, Tmax (hr))	half-life ([2]; dog, in vivo, po, T½ (hr))
CC[C@H](C)[C@H](NC(=O)[C@H](Cc1ccccc1)NC(=O)[C@H](CCC(=O)O)NC(=O)[C@H](CCCNC(=N)N)NC(=O)[C@H](C)NC(=O)[C@H](C)NC(=O)[C@H](CCC(N)=O)NC(=O)[C@H](CCC(=O)O)NC(=O)[C@H](CCC(=O)O)NC(=O)[C@H](CC(C)C)NC(=O)[C@H](Cc1ccc(O)cc1)NC(=O)[C@H](CO)NC(=O)[C@H](CO)NC(=O)[C@H](CCCCNC(=O)COCCOCCNC(=O)COCCOCCNC(=O)CC[C@H](NC(=O)[C@H]1CC[C@H](CNC(=O)CCCCCCCCCCCCCCCCCCC(=O)O)CC1)C(=O)O)NC(=O)[C@H](CC(=O)O)NC(=O)[C@H](CO)NC(=O)[C@@H](NC(=O)[C@H](Cc1ccccc1)NC(=O)[C@@H](NC(=O)CNC(=O)[C@H](CCC(=O)O)NC(=O)[C@H](C)NC(=O)[C@@H](N)Cc1c[nH]cn1)[C@@H](C)O)[C@@H](C)O)C(=O)N[C@@H](CCC(=O)O)C(=O)N[C@@H](Cc1c[nH]c2ccccc12)C(=O)N[C@@H](CC(C)C)C(=O)N[C@H](C(=O)N[C@@H](CCCNC(=N)N)C(=O)NCC(=O)N[C@@H](CCCNC(=N)N)C(=O)NCC(=O)N[C@@H](CCC(=O)O)C(=O)N[C@@H](C)C(=O)N[C@@H](CO)C(=O)N[C@@H](CCC(=O)O)C(=O)N[C@@H](CC(C)C)C(=O)N[C@@H](CO)C(=O)N[C@H](C(=O)N[C@@H](C)C(=O)N[C@@H](C)C(=O)N[C@@H](CC(C)C)C(=O)NCC(=O)N[C@@H](CCCNC(=N)N)C(=O)N[C@@H](CC(C)C)C(=O)N[C@@H](CO)C(=O)N[C@@H](C)C(=O)N[C@@H](CCC(=O)O)C(=O)N[C@@H](CC(C)C)C(=O)N[C@@H](Cc1c[nH]cn1)C(=O)N[C@@H](CCC(=O)O)C(=O)N[C@@H](CC(C)C)C(=O)N[C@@H](C)C(=O)N[C@H](C(=O)N[C@@H](CC(C)C)C(=O)N1CCC[C@H]1C(=O)N[C@@H](CCCNC(=N)N)C(=O)N[C@H](C(=O)N[C@@H](CCC(=O)O)C(=O)N[C@H](C(=O)NCC(=O)N[C@@H](CO)C(=O)NCC(=O)N[C@@H](CO)C(=O)N1CCC[C@H]1C(N)=O)[C@@H](C)O)[C@@H](C)O)[C@@H](C)O)[C@@H](C)O)C(C)C [Compound 0431]	10.96	10.92	9.75 kg·h/L	0.29 kg/L	1.5 h	34 h						
H-HWEGTFTSDVSSYLEEQAAREFIEWLVRGK([AEEA-AEEA-γGlu-Decanoyl(10-(4-HOOC-PhO))])GEGGGGGASELSTAALGRLSAELHELK([AEEA-AEEA-γGlu-Decanoyl(10-(4-HOOC-PhO))])TLPRTETGSGSP-NH2 [Compound 0234]	10.41	10.42	8.00 kg·h/L	0.35 kg/L	1 h	31 h						
H-HWEGTFTSDVSSYLEEQAAREFIEWLVRGK([AEEA-AEEA-γGlu-Decanoyl(10-(4-HOOC-PhO))])GEGGGGGASELSTAALGRLSK([AEEA-AEEA-γGlu-Decanoyl(10-(4-HOOC-PhO))])ELHELATLPRTETGSGSP-NH2 [Compound 0233]	10.33	9.74	8.43 kg·h/L	0.3 kg/L	1.5 h	43 h						
H-H[Aib]EGTFTSDK([AEEA-AEEA-γGlu-C16 diacid])SSYLEEQAAREFIAWLVRGRGGGGGASELSTAALGRLSK([AEEA-AEEA-γGlu-C16 diacid])ELHELATLPRTETGSGSP-NH2 [Compound 0292]							12 pM	33.8 pM	65.29 kg·h/L	0.72 kg/L	2 h	110 h
H-H[Aib]EGTFTSDK([AEEA-AEEA-γGlu-C16 diacid])SSYLEEQAAREFIAWLVRGRGGGGGEASELSTAALGRLSAELHK([AEEA-AEEA-γGlu-C16 diacid])LATLPRTETGSGSP-NH2 [Compound 0259]							15.8 pM	12 pM	31.73 kg·h/L	0.48 kg/L	1.5 h	97 h
H-H[Aib]EGTFTSDVSK([AEEA-AEEA-γGlu-C16 diacid])YLEEQAAREFIAWLVRGRK([AEEA-AEEA-γGlu-C16 diacid])GGGGEASELSTAALGRLSAELHELATLPRTETGSGSP-NH2 [Compound 0528]							3.8 pM	22 pM	37.01 kg·h/L	0.5 kg/L	1.5 h	107 h
H-H[Aib]EGTFTSDVSK([AEEA-AEEA-γGlu-C16 diacid])YLEEQAARK([AEEA-AEEA-γGlu-C16 diacid])FIAWLVRGRQEASELSTAALGRLSAELHELATLPRTETGSGSP-NH2 [Compound 0578]							2.5 pM	26.9 pM	30.60 kg·h/L	0.39 kg/L	1.3 h	90 h
H-H[Aib]EGTFTSDVSK([AEEA-AEEA-γGlu-C16 diacid])YLEEQAARK([AEEA-AEEA-γGlu-C16 diacid])FIAWLVRGRQEGGGGGASELSTAALGRLSAELHELATLPRTETGSGSP-NH2 [Compound 0575]							5.6 pM	8.3 pM	27.60 kg·h/L	0.34 kg/L	1.5 h	91 h
H-H[Aib]EGTFTSDVSK([AEEA-AEEA-γGlu-C16 diacid])YLEEQAARK([AEEA-AEEA-γGlu-C16 diacid])FIEWLVRGRGEASELSTAALGRLSAELHELATLPRTETGSGSP-NH2 [Compound 0577]							5.6 pM	19.1 pM	37.60 kg·h/L	0.45 kg/L	1.3 h	93 h
H-H[Aib]EGTFTSDVSK([AEEA-AEEA-γGlu-C16 diacid])YLEEQAARK([AEEA-AEEA-γGlu-C16 diacid])FIEWLVRGRGEGGGGGASELSTAALGRLSAELHELATLPRTETGSGSP-NH2 [Compound 0576]							2.9 pM	10.1 pM	28.20 kg·h/L	0.34 kg/L	1.3 h	94 h
H-H[Aib]EGTFTSDVSK([Ahx-γGlu-γGlu-C16 diacid])YLEEQAARK([Ahx-γGlu-γGlu-C16 diacid])FIEWLVRGAAEASELSTAALGRLSAELHELATLPRTETGSGSP-NH2 [Compound 0630]							7.1 pM	110 pM	33.33 kg·h/L	0.53 kg/L	1.5 h	73 h
